Source: US20220127297A1, “Novel Antibacterial 3"-Derivatives Of 4,6-Disubstituted 2,5-Dideoxystreptamine Aminoglycoside Antibiotics” (AGILeBiotics B.V., priority 2018, published 2022)

Assays:
Assay in all cases: MIC determination at Uppsala University
Type in all cases: cell-based
E. coli C1181 = conditions: Escherichia coli, ANT(3″)-Ia, APH(3′)-Ia
Text: (§1) 3.4.1 MIC Determination at Uppsala University (Sweden)
(§2) Tested reference compounds. Amikacin disulfate (Cat. No. A1774, Sigma Aldrich), Apramycin sulfate (Cat. No. A2024, Sigma Aldrich) and Gentamicin sulfate (Cat. No. G1914, Sigma Aldrich).
(§3) Bacterial strains/isolates. All assayed laboratory and clinical strains (P. aeruginosa PA01, A. baumanii ATCC 19606, A. baumanii 195N(a), A. baumanii 48F, E. coli C1162, E. coli C1181, M. morgannii S49 and P. stuartii B8-1) were from the IMI ND4BB ENABLE consortium strain collection. ATCC laboratory strains were acquired directly from the American Type Culture Collection. Clinical strains used were previously published (M Juhas, et al. J. Antimicrob. Chemother., 74 (4), 944-952 (2019); D. Hughes et al., Antimicrob. Agents Chemother., 47 (10), 3222-3232 (2003)) and were resistance genotyped within the ENABLE consortium.
(§4) Culture media and equipment. Water (Thermo Scientific, R05819); Mueller-Hinton II broth (BD Ref. 212322); sterile round-bottom 96-well plates (Thermo Scientific, 262162); Sensititre Nephelometer (ThermoFisher Scientific, V3011); 0.5 McFarland Standard (ThermoFisher Scientific, E1041); sterile polyester film (VWR, 391-1251).
(§5) Compound preparation. MIC assay procedure follows the CLSI M07 standard method (Clinical and Laboratory Standards Institute (CLSI); Methods for dilution antimicrobial susceptibility tests for bacteria that grow aerobically; approved standard—eleventh edition, M07-A10, Vol. 38, No. 2, 2018). Test compounds were received as solids and were dissolved in water to a concentration of 10 mg/mL of active compound. […] This solution was serially diluted in 2-fold steps in the first 10 columns of sterile round-bottom 96-well plates, while the final two columns were filled with Mueller-Hinton II broth without added compound for use as positive and negative growth controls.
(§6) Inoculum preparation. Inoculums were prepared by suspending several colonies freshly streaked culture of test strains in 5 mL of sterile 0.9% NaCl. The cell density of the inoculum solution was assessed and adjusted using a Sensititre Nephelometer and a 0.5 McFarland Standard. The inoculum was diluted 1:100 in Mueller-Hinton II broth and 50 μL of this inoculum solution was added to 50 μL of the test compound solutions yielding a concentration range of 64-0.125 μg/mL. The plates were sealed with sterile polyester film and stationarily incubated at 37° C. for 18 hours.
(§7) MIC determination. The MIC value was determined by visual inspection of bacterial growth within 96-well plates. The lowest concentration completely inhibiting growth was reported as the MIC for each strain and compound combination.

E. coli C1162 = conditions: Escherichia coli, APH(3′)-Ia
Text: as §1, §2, §3, §4, §5, §6, §7

A. baumanii ATCC 19606 = conditions: Acinetobacter baumannii, ATCC19606, AMEs: WT
Text: as §1, §2, §3, §4, §5, §6, §7

P. stuartii B8-1 = conditions: Providencia stuartii, B81, AAC(3)-Ic, ANT (3″)Ia, APH(3′)-IIa, APH(3′)-IIb, APH(3′)-VI, APH(6)-Ic
Text: as §1, §2, §3, §4, §5, §6, §7

A. baumanii 195N (a) = conditions: Acinetobacter baumannii, AAC(3)Ia, ANT(3″)Ia, APH(3″)Ib, APH(3′)VI, APH(6)Id
Text: as §1, §2, §3, §4, §5, §6, §7

P. aeruginosa PAO1 = conditions: Pseudomonas aeruginosa, AMEs: WT
Text: as §1, §2, §3, §4, §5, §6, §7

M. morgannii S49 = conditions: Morganella morganii, AAC(3)-IId, ANT(3″), APH(3″)-Ib, APH(3′)-Ia, APH(6)-Id
Text: as §1, §2, §3, §4, §5, §6, §7

A. baumanii 48F = conditions: Acinetobacter baumannii; A. boumanii 48F; ANT(2″)Ia, APH(3″)-Ib, APH(3′)-VIa, APH(6)-Id
Text: as §1, §2, §3, §4, §5, §6, §7

For `CN[C@@H]1[C@@H](O[C@H]2O[C@H](CO)[C@@H](N)[C@H](O)[C@H]2O)OC2C[C@@H](N)[C@@H](O[C@H]3[C@H](O)[C@@H](O)[C@H](N)C[C@@H]3N)OC2[C@@H]1O` (some centres unmarked) [Apramycin, apramycin, reference compound], which MIC90 (E. coli C1181) is on record?
The MIC90 was 8 µg/mL.

What about the MIC90 (E. coli C1162) of the same molecule?
The MIC90 was 8 µg/mL.

What about the MIC90 (A. baumanii ATCC 19606) of the same molecule?
The MIC90 was 32 µg/mL.

What about the MIC90 (P. stuartii B8-1) of the same molecule?
Its MIC90 is 8 µg/mL.

And the MIC90 (A. baumanii 195N (a))?
The MIC90 was 32 µg/mL.

What about the MIC90 (P. aeruginosa PAO1) of the same molecule?
Its MIC90 is 8 µg/mL.

What about the MIC90 (M. morgannii S49) of the same molecule?
Its MIC90 is 8 µg/mL.

What about the MIC90 (A. baumanii 48F) of the same molecule?
Its MIC90 is 32 µg/mL.
